# In patent US20180327367A1, “MACROCYCLIC BROAD SPECTRUM ANTIBIOTICS” (priority 2015, published 2018):
# Read-outs that look alike come from different tables or passages of the source.
# Legend:
# [1] = tested on: Methicillin Resistant Staphylococcus aureus strain USA 300, NRS384; assay: Minimum inhibitory concentration, broth micro-dilution (CLSI), S. aureus; format: cell-based; conditions: 35° C., 22 hours; for MIC: Staphylococcus aureus, MRSA / NRS 384 / USA300, 22 h
# Summary of the method: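 Colonies grown 20 hours at 35° C were suspended in cation-adjusted Mueller Hinton Broth with 0.002% Tween-80. Cells were then added to 2-fold compound dilutions starting at 4 or 0.5 μg/mL, at OD600 0.0005.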
# [2] = tested on: Escherichia coli MC4100 harboring the IMP4213 (E. coli IMP); assay: microbe, parasite or virus in culture; format: cell-based; conditions: 35° C., 22 hours; for MIC (μg/mL) E. coli IMP: E. coli MC4100 IMP4213, increased outer-membrane permeability; for MIC: Escherichia coli, 22 h, read-out: MIC (μg/mL) E. coli IMP, E. coli MC4100 IMP4213, increased outer-membrane permeability
# Summary of the method: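 Broth micro-dilution per CLSI in cation-adjusted Mueller Hinton Broth with 0.002% Tween-80; E. coli MC4100 carries IMP4213, raising outer-membrane permeability. Compounds tested as 2-fold serial dilutions (10 concentrations) from 4 μg/mL (protocol 2) or 0.5 μg/mL (protocol 3); inoculum OD600 0.0005, 35° C for 22 hours.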
# [3] = tested on: Escherichia coli ATCC 25922; assay: Minimum inhibitory concentration, broth micro-dilution (CLSI), E. coli; format: cell-based; conditions: 35° C., 22 hours; for MIC: Escherichia coli, ATCC25922, 22 h
# [4] = biological target: T1, SpsB (Staphylococcus aureus signal peptidase) (Staphylococcus aureus, UniProt P0A070); assay: cell-based; format: biochemical; conditions: SpsB IC50, whole-cell S. aureus (USA300 background, overexpressing SpsB) as SpsB source; fluorogenic peptide substrate, kinetic read 30 min
# T1 construct: This assay uses a suspension of Staphylococcus aureus cells as a source of SpsB instead of recombinant SpsB protein; endogenous in cells; host or cells: S. aureus, USA300 background, overexpressing SpsB (whole-cell suspension from frozen pellets)
# Description: A kinetic fluorogenic enzyme activity assay was used to assess inhibition of SpsB (Staphylococcus aureus signal peptidase) activity and IC50s were determined. This assay uses a suspension of Staphylococcus aureus cells as a source of SpsB instead of recombinant SpsB protein.
# Cell preparation: Luria broth (LB) was inoculated with S. aureus (USA300 background, overexpressing SpsB) and shaken at 37° C. until an OD600 nm of 1.5-2.0 was reached (˜4 hr). The culture was then diluted to an OD600 nm of 1.0 with LB, aliquoted and centrifuged at 10,000×g for 2 mins. The supernatant was removed and the pellet was resuspended in phosphate buffer (1×PBS, 12.5 mg/L MgCl2, 25 mg/L CaCl2, 0.1% Tween-80) to an OD600 nm of 0.5, then centrifuged again at 10,000x g for 2 mins. The supernatant was removed and the pellets were frozen at −20° C.
# Test compounds were prepared in DMSO at a concentration of 10 mg/mL. These compound stocks were diluted into DMSO to a concentration of 25 μg/mL and serial 3-fold dilutions were made in DMSO, for a total of 11 compound concentrations. 20 nL of each compound solution was pre-spotted into a white 384-well plate (50 μL/well polypropylene, Nunc) using acoustic fluid transfer (Echo).
# Frozen S. aureus pellets were resuspended in assay buffer (1x PBS, 12.5 mg/L MgCl2, 25 mg/L CaCl2, 0.1% Tween-80) to an OD600 nm of 0.05, then mixed 1:1 (v/v) with 20 μM substrate ((Dabcyl)βAla-KPAKAAE(Edans)) in assay buffer, and this solution was added (20 μL/well) to the 384-well plate that had been pre-spotted with compound. Fluorescence intensity was then immediately read kinetically for 30 minutes with 2 minute read intervals to monitor cleavage of the internally quenched peptide substrate (excitation wavelength=340 nm, emission wavelength=490 nm, Molecular Devices Spectramax M5). Reaction rate (slope) was plotted against inhibitor concentration to derive the IC50.
# [5] = read-out: MIC (μg/mL) S. aureus, MRSA USA 300 NRS384
# [6] = read-out: MIC (μg/mL) E. coli, E. coli ATCC 25922
# [7] = MRSA USA 300 NRS384, read-out: MIC (μg/mL) S. aureus
# [8] = E. coli ATCC 25922, read-out: MIC (μg/mL) E. coli
# T1 sequence (P0A070 whole entry): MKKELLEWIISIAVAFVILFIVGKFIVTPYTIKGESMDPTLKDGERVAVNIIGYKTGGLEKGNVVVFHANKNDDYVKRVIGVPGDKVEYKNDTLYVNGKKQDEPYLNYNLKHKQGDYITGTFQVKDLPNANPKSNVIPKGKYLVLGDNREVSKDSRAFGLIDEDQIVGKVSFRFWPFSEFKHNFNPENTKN
Compound,MIC (μg/mL) S. aureus ([1]; MRSA USA 300 NRS384) [µg/mL],MIC (μg/mL) E. coli IMP [2] [µg/mL],MIC (μg/mL) E. coli ([3]; E. coli ATCC 25922) [µg/mL],IC50 [4] [nM],"MIC [1, 5] [µg/mL]",MIC [2] [µg/mL],"MIC [3, 6] [µg/mL]","MIC [1, 7] [µg/mL]","MIC [3, 8] [µg/mL]"
Cc1cc(C2CC2c2ccccc2)ccc1C(=O)N[C@@H](CCN)C(=O)N(C)[C@@H]1C(=O)N[C@@H](C)C(=O)N[C@H](C(=O)NCC#N)Cc2ccc(OCCN)c(c2)-c2cc1ccc2OCCN (mixture of isomers) [Compound 440],0.19,0.063,8,0.81,–,–,–,–,–
C[C@@H]1NC(=O)[C@@H](N(C)C(=O)[C@H](CCCCN)NC(=O)c2ccc(-c3ccc(Cl)cc3)cc2)c2ccc(OCC(O)CN)c(c2)-c2cc(ccc2O)C[C@@H](C(=O)NCC#N)NC1=O (mixture of isomers) [Compound 514],–,–,–,2,0.25,0.19,32,–,–
"CCCCCCCCCC(=O)N[C@@H](C(=O)N[C@@H](CCN)C(=O)N(C)[C@@H]1C(=O)N[C@@H](C)C(=O)N[C@H](C(=O)NCC#N)Cc2ccc(OCCN)c(c2)-c2cc1ccc2OCCN)C(C)O (single isomer, unassigned) [Compound 357-P2]",–,–,–,1.1,0.094,0.094,12,–,–
"CCCCCCCCC(O)C(=O)NC(CO)C(=O)N(C)C1C(=O)NC(C)C(=O)NC(C(=O)NCC#N)Cc2ccc(OCCN)c(c2)-c2cc1ccc2OCCN (single isomer, unassigned) [Compound 393-P1]",–,–,–,5.9,2,1,> 64,–,–
"CCCCCCCCC(O)C(=O)NC(CO)C(=O)N(C)C1C(=O)NC(C)C(=O)NC(C(=O)NCC#N)Cc2ccc(OCCN)c(c2)-c2cc1ccc2OCCN (single isomer, unassigned) [Compound 393-P2]",1,2,>64,4.7,–,–,–,–,–
"CCCCCCCCC(F)C(=O)NC(CO)C(=O)N(C)C1C(=O)NC(C)C(=O)NC(C(=O)NCC#N)Cc2ccc(OCCN)c(c2)-c2cc1ccc2OCCN (single isomer, unassigned) [Compound 394-P1]",–,–,–,3.9,1,0.25,> 64,–,–
"CCCCCCCCC(F)C(=O)NC(CO)C(=O)N(C)C1C(=O)NC(C)C(=O)NC(C(=O)NCC#N)Cc2ccc(OCCN)c(c2)-c2cc1ccc2OCCN (single isomer, unassigned) [Compound 394-P2]",0.5,0.38,64,2.7,–,–,–,–,–
CCCCCCCCCCNCCC(=O)N[C@@H](CCCCN)C(=O)N(C)[C@@H]1C(=O)N[C@@H](C)C(=O)N[C@H](C(=O)NCC#N)Cc2ccc(OCCN)c(c2)-c2cc1ccc2OCCN [Compound 101],–,–,–,0.72,–,1.7,–,0.094,48
CCCCCCCCCCCCC(=O)N[C@@H](CCN)C(=O)N(C)[C@@H]1C(=O)N[C@@H](C)C(=O)N[C@H](C(=O)NCC#N)Cc2ccc(OCCN)c(c2)-c2cc1ccc2OCCN [Compound 102],–,–,–,0.52,–,0.0078,–,0.023,0.25
CCCCCCCCCCCC(=O)N[C@@H](CCN)C(=O)N(C)[C@@H]1C(=O)N[C@@H](C)C(=O)N[C@H](C(=O)NCC#N)Cc2ccc(OCCN)c(c2)-c2cc1ccc2OCCN [Compound 103],–,–,–,0.57,–,0.0078,–,0.023,1
CCCCCCCCCCC(=O)N[C@@H](CCN)C(=O)N(C)[C@@H]1C(=O)N[C@@H](C)C(=O)N[C@H](C(=O)NCC#N)Cc2ccc(OCCN)c(c2)-c2cc1ccc2OCCN [Compound 104],–,–,–,0.5,–,0.023,–,0.047,4
CCCCCCCCCC(=O)N[C@@H](CCN)C(=O)N(C)[C@@H]1C(=O)N[C@@H](C)C(=O)N[C@H](C(=O)NCC#N)Cc2ccc(OCCN)c(c2)-c2cc1ccc2OCCN [Compound 105],–,–,–,0.82,–,0.031,–,0.13,8
CCCCCCCCC(=O)N[C@@H](CCN)C(=O)N(C)[C@@H]1C(=O)N[C@@H](C)C(=O)N[C@H](C(=O)NCC#N)Cc2ccc(OCCN)c(c2)-c2cc1ccc2OCCN [Compound 106],–,–,–,1.7,–,0.13,–,0.38,24
CCCCCCCC(=O)N[C@@H](CCN)C(=O)N(C)[C@@H]1C(=O)N[C@@H](C)C(=O)N[C@H](C(=O)NCC#N)Cc2ccc(OCCN)c(c2)-c2cc1ccc2OCCN [Compound 107],–,–,–,4,–,0.38,–,1,32
CCCCCc1ncc(C(=O)N[C@@H](CCN)C(=O)N(C)[C@@H]2C(=O)N[C@@H](C)C(=O)N[C@H](C(=O)NCC#N)Cc3ccc(OCCN)c(c3)-c3cc2ccc3OCCN)c(C)n1 [Compound 200],–,–,–,2.8,–,–,–,1,4
Cc1cc(Oc2ccc(C(C)(C)C)cc2)ccc1C(=O)N[C@@H](CCN)C(=O)N(C)[C@@H]1C(=O)N[C@@H](C)C(=O)N[C@H](C(=O)NCC#N)Cc2ccc(OCCN)c(c2)-c2cc1ccc2OCCN [Compound 302],–,–,–,0.79,0.031,–,0.25,–,–
C[C@@H]1NC(=O)[C@@H](N(C)C(=O)[C@H](CCCCN)NC(=O)c2ccc(-c3ccc(Cl)cc3)cc2)c2ccc(OCCN)c(c2)-c2cc(ccc2O)C[C@@H](C(=O)NCC#N)NC1=O [Compound 318],–,–,–,0.8,–,–,–,–,–
CCCCc1ccc(-c2ccc(C(=O)N[C@@H](CN)C(=O)N(C)[C@@H]3C(=O)N[C@@H](C)C(=O)N[C@H](C(=O)N[C@@H](C)C#N)Cc4ccc(OCCN)c(c4)-c4cc3ccc4OCCN)cc2)cc1 [Compound 340],–,–,–,0.69,–,< 0.063,–,–,0.75
CCCCCCCCc1ccc(C(=O)N[C@@H](CCCN)C(=O)N(C)[C@@H]2C(=O)N[C@@H](C)C(=O)N[C@H](C(=O)NCC#N)Cc3ccc(OC)c(c3)-c3cc2ccc3OC)cc1 [Compound 471],–,–,–,10,–,< 0.063,–,–,48
CCCCCCc1ccc(C(=O)N2CCC(N)C[C@H]2C(=O)N(C)[C@@H]2C(=O)N[C@@H](C)C(=O)N[C@H](C(=O)NCC#N)Cc3ccc(OCCN)c(c3)-c3cc2ccc3OCCN)c(C)c1 (stereo partly drawn) [Compound 526-3],–,–,–,–,–,0.031,–,0.063,3
CCCCCCOc1ccc(N2CCN(c3ccc(C(=O)N[C@@H](CCN)C(=O)N(C)[C@@H]4C(=O)N[C@@H](C)C(=O)N[C@H](C(=O)NCC#N)Cc5ccc(OCCN)c(c5)-c5cc4ccc5OCCN)cc3)CC2)cc1 [Compound 527],–,–,–,–,–,0.063,–,0.063,4
